Data set [1] concerns C2C12 cells. In words: Flow cytometry (FACS) cell cycle analysis during myogenic differentiation. The class given is cell-based, murine. The settings on record: percentage of cells; differentiation media, 0.5 mM oligonucleotide, 24 hours; DNA content by FACS. In general terms: Flow cytometry measures light scatter and fluorescence of single cells or particles in a stream.
For data set [2], the system named is cardiomyocytes. Put plainly: TUNEL analysis of cultured cardiomyocytes. The class given is cell-based, rat. The settings on record: increasing concentrations of IGF-1, mock- and Adeno-β-gal-transfected cells, 48 hours.
For data set [3], the system named is cardiac myocytes. Put plainly: Hoechst 33342 staining for pyknotic nuclei in cardiac myocytes. The class given is cell-based, rat. Particulars: serum-free media with IGF-1.
Data set [4] has as its system neonatal rat cardiac myocytes. In words: Neonatal cardiac myocyte viability, trypan-blue exclusion assay. The format is cell-based.
Data set [5] relates to Akt. Put plainly: Akt kinase assay (histone H2B) in cardiac myocyte lysates. The format is cell-based, rat. Particulars: serum-deprived, 50 ng/ml IGF-1, 15 min.
Chain of Akt (P31750 whole entry): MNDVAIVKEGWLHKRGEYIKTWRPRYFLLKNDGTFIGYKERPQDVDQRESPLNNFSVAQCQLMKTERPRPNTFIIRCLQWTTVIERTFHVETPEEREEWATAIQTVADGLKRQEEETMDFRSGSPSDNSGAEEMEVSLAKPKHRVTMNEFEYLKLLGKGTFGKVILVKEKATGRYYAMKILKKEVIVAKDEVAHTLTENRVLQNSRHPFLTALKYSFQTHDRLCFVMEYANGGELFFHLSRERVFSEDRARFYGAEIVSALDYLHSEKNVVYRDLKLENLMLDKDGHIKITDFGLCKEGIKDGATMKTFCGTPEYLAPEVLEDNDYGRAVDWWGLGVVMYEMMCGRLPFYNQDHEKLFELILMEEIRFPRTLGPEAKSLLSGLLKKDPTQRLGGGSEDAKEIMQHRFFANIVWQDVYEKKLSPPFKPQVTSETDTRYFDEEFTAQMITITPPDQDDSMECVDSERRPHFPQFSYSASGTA
Data set [6] relates to HUVECs. Put plainly: HUVEC plasmid co-transfection cell-death assay (surviving β-galactosidase-positive cells). The class given is cell-based, human. Particulars: 25 ng/ml VEGF, serum-free 21 hrs, control plasmid.
In data set [7] the test system is HUVECs. Put plainly: HUVEC cell viability, Trypan-blue exclusion assay. The settings on record: 100 ng/ml VEGF, serum-free DMEM, 21 hours. The format is cell-based, human.
Data set [8] concerns Akt2. Put plainly: Akt2 kinase assay (histone H2B) in HUVEC lysates. The settings on record: serum-deprived HUVEC, VEGF 100 ng/ml, 15 min. The class given is cell-based, human.
Data set [9] relates to p21. Put plainly: Western immunoblot of C2C12 lysates, anti-p21. The class given is cell-based, murine. The settings on record: differentiation media with Lipofectin, 24 hours. Background: A western blot detects proteins with antibodies after separation by electrophoresis.
In data set [10] the test system is C2C12 cells. The class given is cell-based, murine.
Data set [11] deals with Cdk4. In words: Western immunoblot of C2C12 lysates, anti-Cdk4. The format is cell-based, murine. Particulars: differentiation media with Lipofectin, 24 hours.
The test system of data set [12] is Akt. The class given is cell-based, murine.

“Also recorded” adds a separate entry of the source.

Turning to “5′-TGG ATC CGA CAT GTC AGA-3′ (TGGATCCGACATGTCAGA; all phosphorothioate, sugars by position and methylation of C not given here) [Control]”, in data set [1], the “Cell cycle phase G0/G1” value is 67, the “Cell cycle phase G2/M” value is 8 and the “Cell cycle phase S” value is recorded as 25.
On to “IGF-1: Insulin-like growth factor-1, purchased from Gibco BRL”, for which the “frequency of myocyte apoptosis (TUNEL)” value in data set [2] is given as “reduced the frequency of myocyte apoptosis”. Besides, in [3], the “incidence of pyknotic nuclei” value is listed as “suppressed the incidence of pyknotic nuclei”. Further, the “time cardiac myocyte viability was sustained” value in [4] (50 ng/ml IGF-1, serum-depleted) is reported as “more than 48 hours”. In addition, the “cardiac myocyte viability / cytoprotection by IGF-1” value in data set [4] (serum-free media, up to 72 hours) is “dependent on the dose of IGF-1; also recorded: maintained”. Also, in data set [5], the “Akt activity (phosphorylation of histone H2B)” value is “induced the phosphorylation of histone H2B”.
As for VEGF, the “increase in number of surviving β-galactosidase positive cells (factor)” value in data set [6] came to 3. Moreover, the “cell loss induced by serum-deprivation” value in data set [7] is listed as “completely reversed cell loss induced by serum-deprivation”. Further, the Akt2 kinase activity entry in data set [8] is “little or no activation of Akt2”.
As for “5′-TGTCAGGCTGGTCTGCCTCC-3′ (antisense TGTCAGGCTGGTCTGCCTCC; chemistry not given here) [p21-AS]”, in [1], the “Cell cycle phase G0/G1” value is given as 38, the “Cell cycle phase G2/M” value was determined as 17 and the “Cell cycle phase S” value is given as 45. Moreover, the “induction of p21” value in [9] is recorded as “markedly inhibited the induction of p21”. For the same substance, the “cell-death versus control cultures” value in [10] is “Markedly enhanced cell-death”. In data set [11], the cdk4 expression entry was “no significant effect on cdk4”. Further, the Akt expression result in data set [12] is reported as “statistically significant reduction in Akt expression”.

The values are drawn from patent US7368420B1, “Akt compositions for enhancing survival of cells” (Caritas St. Elizabeth's Medical Center of Boston, Inc., priority 1998, dated 2008).
